Article PMC4592898, “Biochemical Characterisation of Phage Pseudomurein Endoisopeptidases PeiW and PeiP Using Synthetic Peptides” (Archaea, 2015)

Assays:
[1] = molecular target: T1, PeiP (Methanobacterium phage psiM2, UniProt Q77WJ4); assay: inhibition of EγApNA hydrolysis, […] nm, […] min preincubation; format: biochemical; conditions: read-out: % inhibition at 1 mM
T1 construct: N-terminal His-tag kept, pET151D, E. coli BL21-Rosetta 2; 338 residues and 39,537 Da with tag; monomer

[2] = molecular target: T2, PeiW (Methanothermobacter phage psiM100, UniProt Q7LYX0); assay: as above; format: biochemical; conditions: for inhibition at 1000 µM: read-out: % inhibition at 1 mM
T2 construct: N-terminal His-tag kept, pET151D, E. coli BL21-Rosetta 2; 317 residues and 37,219 Da with tag; monomer
T2 sequence (Q7LYX0 whole entry): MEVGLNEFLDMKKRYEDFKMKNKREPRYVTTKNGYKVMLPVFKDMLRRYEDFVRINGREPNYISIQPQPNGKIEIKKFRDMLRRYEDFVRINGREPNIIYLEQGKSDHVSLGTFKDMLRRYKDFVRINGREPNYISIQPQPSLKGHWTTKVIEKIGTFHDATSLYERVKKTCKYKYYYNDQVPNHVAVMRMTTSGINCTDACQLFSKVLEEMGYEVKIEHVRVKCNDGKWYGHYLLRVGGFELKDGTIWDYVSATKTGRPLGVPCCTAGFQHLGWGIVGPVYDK

T1 sequence (Q77WJ4 whole entry): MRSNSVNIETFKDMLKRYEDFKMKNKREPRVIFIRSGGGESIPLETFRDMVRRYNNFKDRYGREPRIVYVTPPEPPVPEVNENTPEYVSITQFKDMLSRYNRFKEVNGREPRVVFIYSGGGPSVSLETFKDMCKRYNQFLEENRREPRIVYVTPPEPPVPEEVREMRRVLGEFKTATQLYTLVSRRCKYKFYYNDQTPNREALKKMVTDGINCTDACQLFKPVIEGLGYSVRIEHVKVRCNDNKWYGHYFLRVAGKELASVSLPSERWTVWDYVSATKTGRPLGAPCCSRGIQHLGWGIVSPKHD

inhibition at 1000 µM [1] [%]	inhibition at 1000 µM [2] [%]	SMILES	% inhibition at 1 mM ([2]; 60 °C, pH 7.85, 10 mM CaCl2, 10 mM TCEP) [%]
100	100	NCCSSCCN [Cystamine]	–
50	60	CN(C)c1cccc2c(S(=O)(=O)NCCCCCN)cccc12 [Dansylcadaverine]	–
30	10	CC(C)C[C@H](NC(=O)[C@@H]1O[C@H]1C(=O)O)C(=O)NCCCCNC(=N)N [E64]	–
–	–	O=S(=O)(F)Cc1ccccc1 [PMSF]	10
